According to patent publication US9340577B2, “HLA binding motifs and peptides and their uses” (priority 1992, dated 2016):
Like-named read-outs stand apart in the source and are kept apart here. Residues, ends and D or L forms follow the SMILES beside them. No end group written: not given here.

Experiments:
DR1 (DRB1*0101) = DR1 (DRB1*0101) (Homo sapiens, UniProt P01903+P01911, A100R/D57E/F55L/F60I/F76Y/I96L/L162R/M171V/P40L/Q125E/R42F/V115G/Y59C); assay: biochemical; format: binding; settings: read-out: DRB1*0101
DR4w4 (DRB1*0401) = DR4w4 (DRB1*0401) (Homo sapiens, UniProt P01903+P01911, A100K/A169T/F76Y/I96L/K127E/L162R/M171V/N62H/P40V/Q125Y/R42H/S133A/S149N/S66Y/V115G/V209L/W38E); assay: biochemical; format: binding
DRB1*1101 = DRB1*1101 (Homo sapiens, UniProt P01903+P01911, A100R/A169T/A87E/I96F/K41T/L162R/M171V/P40S/Q125H/Q178H/Q39Y/Q99D/R42S/S66Y/T262R/V115G/W38E); settings: read-out: DRB1*1101
H-2Db = H-2Db (Mus musculus, UniProt P01899); assay: biochemical; format: binding, murine
DR7 (DRB1*0701) = DR7 (DRB1*0701) (Homo sapiens, UniProt P01903+P01911, A100R/A102G/A103Q/D57E/D86V/E43K/F76Y/K127E/L162R/M171V/P40G/Q125H/Q99D/R33Q/R42Y/R54Q/S133A/S66F/T210M/V115G/Y107V/Y59L/Y89S); assay: biochemical; format: binding; settings: read-out: DRB1*0701
A01 supertype = format: binding, human
DRB1*0405 = DRB1*0405 (Homo sapiens, UniProt P01903+P01911, A100R/A169T/D86S/F76Y/I96L/K127E/L162R/M171V/N62H/P40V/Q125Y/R42H/S133A/S149N/S66Y/V115G/V209L/W38E); assay: biochemical; format: binding; settings: read-out: DRB1*0405
DRB1*0901 = DRB1*0901 (Homo sapiens, UniProt P01903+P01911, A100R/A103E/D57H/D86V/F55Y/F60I/F76Y/I96F/K127E/L162R/M171V/P40D/Q125H/Q99R/R33Q/R42F/S133A/S66N/T210M/V115G/W38K/Y107V/Y59G/Y89S); assay: biochemical; format: binding; settings: read-out: DRB1*0901
DRB1*0802 = DRB1*0802 (Homo sapiens, UniProt P01903+P01911, A100R/A103L/A169T/F76Y/H45Y/I96F/K41T/L162R/M171V/P40S/Q125H/Q178H/Q39Y/Q99D/R218S/R42G/S66Y/V115G/W38E); assay: biochemical; format: binding; settings: read-out: DRB1*0802
DRB1*1302 = DRB1*1302 (Homo sapiens, UniProt P01903+P01911, A100E/A169T/K41T/L162R/M171V/P40S/Q125H/Q178H/Q39Y/Q99D/R42S/S66N/T262R/V115G/W38E/Y61H); assay: biochemical; format: binding; settings: read-out: DRB1*1302
DRB1*1501 = DRB1*1501 (Homo sapiens, UniProt P01903+P01911); assay: biochemical; format: binding; settings: read-out: Binding affinity DRB1 *1501
DRB3*0101 = DRB3*0101 (Homo sapiens, UniProt P01903+P79483); assay: biochemical; format: binding; settings: read-out: DRB3*0101
DRB4*0101 = DRB4*0101 (Homo sapiens, UniProt P01903+P13762, G164S); assay: biochemical; format: binding; settings: read-out: Binding affinity DRB4 *0101
DRB5*0101 = DRB5*0101 (Homo sapiens, UniProt P01903+Q30154)
B*0702 (B*0701) = B*0702 (B*0701) (Homo sapiens, UniProt P01889); assay: biochemical; format: binding
B*3502 = B*3502 (Homo sapiens, UniProt P01889, A329T/A93T/A95T/C349S/D138N/D201E/D98Y/E176V/E187L/E204Q/E69T/I218V/K202T/L119I/L133F/Q94N/R155S/R180L/S121R/S35A/S48A/T118I/V127L/V306I/V36M/Y91F); assay: biochemical; format: binding
B*3503 = B*3503 (Homo sapiens, UniProt P01889, A329T/A93T/A95T/C349S/D201E/D98Y/E176V/E187L/E204Q/E69T/I218V/K202T/L119I/Q94N/R155S/R180L/S121R/S35A/S48A/T118I/V127L/V306I/V36M/Y140F/Y91F); assay: biochemical; format: binding
B*5401 (B54) = B*5401 (B54) (Homo sapiens, UniProt P01889, A329T/C349S/D138N/D201E/E176V/E187T/E204Q/E69G/I76V/K202T/L119W/R155S/R180L/S121T/S35A/S48A/V127L/V306I/V36M/Y140L); settings: read-out: BINDING CAPACITY (IC50 nM) B*5401
B*3501 = B*3501 (Homo sapiens, UniProt P01889, A329T/A93T/A95T/C349S/D201E/D98Y/E176V/E187L/E204Q/E69T/I218V/K202T/L119I/Q94N/R155S/R180L/S121R/S35A/S48A/T118I/V127L/V306I/V36M/Y140S/Y91F); assay: biochemical
A03/11 supertype = format: binding, human
A02 supertype = format: binding, human

Q: “820.01 (YARSQTTLKAKT; also: non-natural residue (15A)) [Peptide 820.01]” was tested. Which IC50 (DR1 (DRB1*0101)) did it give?
A: The IC50 was 2.4 nM.

Q: What about the IC50 (DR4w4 (DRB1*0401); read-out: DRB1*0401) of the same compound?
A: Its IC50 is 0.78 nM.

Q: And the IC50 (DRB1*1101)?
A: Its IC50 is 2.5 nM.

Q: Which IC50 (H-2Db) does the source give for SIQFFGEL [Peptide F079.04] here?
A: The IC50 was > 44000 nM.

Q: What does the source list for “782.03 (YARSQTTLKAKT; also: non-natural residue (15)) [Peptide 782.03]”?
A: IC50 (DR1 (DRB1*0101)): 1.5 nM; IC50 (DR4w4 (DRB1*0401); read-out: DRB1*0401): 0.46 nM; IC50 (DR7 (DRB1*0701)): 1200 nM; IC50 (DRB1*1101): 3.9 nM

Q: What does the source list for “820.03 (ARQTTLKAAA; also: non-natural residue (15A)) [Peptide 820.03]”?
A: IC50 (DR1 (DRB1*0101)): 4.2 nM; IC50 (DR4w4 (DRB1*0401); read-out: DRB1*0401): 0.31 nM; IC50 (DRB1*1101): 1.8 nM

Q: With “820.04 (ARQTTLKAAA; also: non-natural residue (16A)) [Peptide 820.04]” as the compound, how does the IC50 (DR4w4 (DRB1*0401); read-out: DRB1*0401) read?
A: The IC50 was 1.3 nM.

Q: What about the IC50 (DRB1*1101) of the same compound?
A: The IC50 was 77 nM.

Q: With AFKDLFVVY as the compound, how does the Degeneracy (A01 supertype) read?
A: The Degeneracy was 2.

Q: How did the IC50 (H-2Db) turn out when CSCC[C@H](NC(=O)[C@H](Cc1c[nH]c2ccccc12)NC(=O)[C@@H](NC(=O)[C@H](Cc1ccc(O)cc1)NC(=O)[C@H](Cc1ccccc1)NC(=O)[C@H](CC(=O)O)NC(=O)[C@H](Cc1ccc(O)cc1)NC(=O)[C@@H](NC(=O)[C@@H](N)CO)C(C)C)C(C)C)C(=O)O [Peptide F138.03] was run?
A: Its IC50 is 3370 nM.

Q: What does the source list for CC[C@H](C)[C@H](NC(=O)[C@H](CC(=O)O)NC(=O)[C@H](CCC(N)=O)NC(=O)[C@H](CC(C)C)NC(=O)[C@H](CO)NC(=O)[C@@H](NC(=O)[C@@H](N)CC(N)=O)[C@@H](C)O)C(=O)N[C@@H](CCC(=O)O)C(=O)N[C@H](C(=O)N[C@H](C(=O)N[C@@H](CS)C(=O)N[C@H](C(=O)N[C@@H](Cc1ccc(O)cc1)C(=O)N[C@@H](CS)C(=O)N[C@@H](CCCCN)C(=O)O)C(C)C)[C@@H](C)O)[C@@H](C)CC [Peptide 85.0007] (H-NTSLQDIEITCVYCK-OH)?
A: IC50 (DR1 (DRB1*0101)): > 12100 nM; IC50 (DR7 (DRB1*0701)): > 17200 nM; IC50 (DRB1*0405): 4580 nM; IC50 (DRB1*0901): 30900 nM; IC50 (DRB1*1101): > 14700 nM

Q: Which results are given for CSCC[C@H](NC(=O)[C@H](Cc1ccccc1)NC(=O)[C@H](CCCCN)NC(=O)[C@@H](NC(=O)[C@@H](NC(=O)[C@H](CCCCN)NC(=O)[C@H](CCC(N)=O)NC(=O)[C@@H]1CCCN1C(=O)[C@H](Cc1c[nH]cn1)NC(=O)[C@@H](NC(=O)[C@H](CCC(N)=O)NC(=O)[C@H](C)NC(=O)[C@@H](N)CS)C(C)C)C(C)C)[C@@H](C)O)C(=O)N[C@@H](CC(C)C)C(=O)N[C@@H](CS)C(=O)O [Peptide 68.0078]?
A: IC50 (DR1 (DRB1*0101)): 10200 nM; IC50 (DR4w4 (DRB1*0401); read-out: Binding affinity DRB1 *0401): 2570 nM; IC50 (DR7 (DRB1*0701)): 32300 nM; IC50 (DRB1*0802): 8730 nM; IC50 (DRB1*0901): 34900 nM; IC50 (DRB1*1302): 2190 nM; IC50 (DRB1*1501): 809 nM; IC50 (DRB3*0101): > 13500 nM; IC50 (DRB4*0101): 604 nM; IC50 (DRB5*0101; read-out: Binding affinity DRB5 *0101): 1230 nM

Q: SIQFFGERAL [Peptide F079.03] was tested. Which IC50 (H-2Db) did it give?
A: Its IC50 is > 44000 nM.

Q: Which IC50 (B*0702 (B*0701)) does the source give for CC(C)C[C@H](NC(=O)[C@H](C)NC(=O)[C@@H](NC(=O)[C@H](CC(C)C)NC(=O)[C@H](C)NC(=O)[C@@H](NC(=O)[C@@H](NC(=O)[C@H](CCCNC(=N)N)NC(=O)[C@@H]1CCCN1C(=O)[C@H](C)N)[C@@H](C)O)C(C)C)[C@@H](C)O)C(=O)O [APRTVALTAL] here?
A: Its IC50 is 4.2 nM.

Q: And the IC50 (B*3502)?
A: The IC50 was > 30000 nM.

Q: What about the IC50 (B*3503) of the same compound?
A: Its IC50 is > 30000 nM.

Q: What about the IC50 (B*5401 (B54)) of the same compound?
A: The IC50 was 17300 nM.

Q: And the IC50 (B*3501)?
A: The IC50 was > 30000 nM.

Q: What does the source list for “820.02 (YARRQTTLKAAA; also: non-natural residue (15A)) [Peptide 820.02]”?
A: IC50 (DR1 (DRB1*0101)): 1.6 nM; IC50 (DR4w4 (DRB1*0401); read-out: DRB1*0401): 0.35 nM; IC50 (DR7 (DRB1*0701)): 8330 nM; IC50 (DRB1*1101): 1.2 nM

Q: How did the Degeneracy (A03/11 supertype) turn out when LTISYGRKK [Peptide 66.0060] was run?
A: Its Degeneracy is 2.

Q: For CC(C)C[C@H](NC(=O)[C@H](Cc1c[nH]c2ccccc12)NC(=O)[C@H](CCCCN)NC(=O)CNC(=O)[C@H](CC(C)C)NC(=O)[C@H](CS)NC(=O)[C@H](Cc1c[nH]cn1)NC(=O)[C@H](CS)NC(=O)[C@@H](NC(=O)[C@H](CCCNC(=N)N)NC(=O)[C@H](CCC(=O)O)NC(=O)[C@H](CC(C)C)NC(=O)[C@H](CO)NC(=O)[C@H](Cc1c[nH]cn1)NC(=O)[C@H](C)NC(=O)[C@@H](N)CCC(N)=O)C(C)C)C(=O)NCC(=O)N[C@@H](Cc1c[nH]cn1)C(=O)N1CCC[C@H]1C(=O)N[C@@H](CC(=O)O)C(=O)N[C@@H](CCCCN)C(=O)O [Peptide 868.01] (H-QAHSLERVCHCLGKWLGHPDK-OH), which IC50 (DR7 (DRB1*0701)) is on record?
A: The IC50 was > 250000 nM.

Q: What about the IC50 (DRB5*0101; read-out: DRB5*0101) of the same compound?
A: Its IC50 is 2500 nM.

Q: With HTQELFISNIV [Peptide 9013.0316] as the compound, how does the Degeneracy (A02 supertype) read?
A: The Degeneracy was 1.

Q: For CC[C@H](C)[C@H](NC(=O)[C@H](CS)NC(=O)[C@@H](NC(=O)[C@@H](N)Cc1ccc(O)cc1)[C@@H](C)O)C(=O)N[C@@H](CC(=O)O)C(=O)NCC(=O)N[C@@H](CCC(N)=O)C(=O)N[C@@H](CS)C(=O)N[C@H](C(=O)N[C@H](C(=O)O)C(C)C)[C@@H](C)O [Peptide 1593.58] (H-YTCIDGQCTV-OH), which Degeneracy (A02 supertype) is on record?
A: The Degeneracy was 3.
